Patent US5281594A, “Substituted 1-(alkoxyphenyl)piperazines with ons and antihypertensive activity” (The Upjohn Company, priority 1992, dated 1994)
pKi: −log10 of the molar value. Where two headings read alike, the source gives them in different places.

Legend:
[1] = tested on: dopaminergic neurons in the substantia nigra (SNPC); assay: Dopamine nerve impulse generation: depression of firing of substantia nigra dopamine neurons (agonist); format: in vivo, Sprague-Dawley rats; details: for Emax / ED50: Rattus norvegicus, Neuron, iv; for Emax: read-out: Agonist Max.: maximal depression of firing; for ED50: read-out: Agonist ED50: dose to depress firing by 50%; for maximal depression on DA cell firing (% of control): 1 mg/kg i.v.
Description: (§1) 3. Dopamine Nerve Impulse Generation
Dopaminergic agonists, such as apomorphine, depress nerve impulses generated by dopaminergic neurons. Indeed, all full dopamine agonists can completely suppress impulse generation so that the dopamine cells stop firing completely. As the name implies, partial agonists depress impulse generation only partly.
(§2) The activity of two compounds of the invention are compared with other known drugs in their effect on nerve impulse generation. Sprague-Dawley rats weighing between 250-350 g are anesthetized with chloral hydrate (400 mg/kg i.p.). Supplemental doses (50-100 mg/kg) are administered as needed. The fermoral artery and vein are cannulated to measure blood pressure and to permit i.v. administration of drug. Body temperature is maintained at 37° C. using a deltaphase isothermal pad. The animal's head is held in a stereotaxic device and a small burr hole made in the cranium. Extracellular action potentials are recorded with a glass microelectrode (tip size<1μm) filled with pontamine sky blue dye in 2M sodium chloride.
(§3) Dopaminergic neurons are identified by their long duration action potential (>2.5 ms), shape and firing pattern ([…]) according to B. S. Bunney and G. K. Aghajanian "Antipsychotic Drugs and Central Dopaminergic Neurons: A Model for Predicting Therapeutic Efficacy and Incidence of Extrapyramidal Side Effects, In: Predictability in Psychopharmacology: Preclinical and Clinical Correlates, eds.", Raven Press, N.Y., pp. 225-245 (1975). […] Watson "The Rat Brain in Stereotaxic Coordinates", Academic Press, Sydney (1982).
(§4) At the termination of each recording session, the location of the cell in the substantia nigra is identified by passing 10 μA cathodic current through the recording electrode for 10-20 minutes. The brain is then removed, fixed in 10% formalin, sectioned and stained, and the pontamine sky blue deposit verified in each animal.
(§5) All drug solutions are made in distilled water. Each drug injection contained no more than 0.15 ml of a given concentration, followed by a 0.2-0.4 ml of physiological saline to clean the catheter of any residual drug. Drug effects are measured as changes in firing rates as indicated by an integrated output throughout the experiment.

[2] = tested on: dopaminergic neurons in the substantia nigra (SNPC); assay: Dopamine nerve impulse generation: reversal of amphetamine-induced depression of firing (antagonist); format: in vivo, Sprague-Dawley rats; details: for ED50: Rattus norvegicus, Neuron, iv, read-out: Antagonist ED50: dose to reverse amphetamine by 50%
Description: as §1
Dopamine partial agonists act as dopamine antagonists when dopaminergic activity is excessive. Excessive dopaminergic activity can be induced by amphetamine, which causes dopamine to be released at nerve terminals in dopaminergic postsynaptic areas such as the caudate nucleus. This released dopamine activates negative feedback systems connecting postsynaptic dopaminergic areas to dopamine cells (e.g., the caudate nucleus feeds back onto substantia nigra neurons). Through this negative feedback system, amphetamine inhibits nerve impulses in dopamine neurons. Because dopamine antagonists block the access of dopamine to its receptors, these agents block the activation of the negative feedback pathways. Thus, dopamine antagonists and dopamine partial agonists block or reverse amphetamine's depression in dopamine nerve impulse activity. Because dopamine antagonists block not only the dopamine released by amphetamine but also the dopamine released for maintenance of a normal physiological state, dopamine antagonists not only completely reverse the effects of amphetamine but may actually cause an increase in dopamine neuron impulse activity (i.e. reverse amphetamine's inhibition by more than 100%). […] Indeed, partial agonists with higher intrinsic activities only partially reverse the effects of amphetamine.
as §2, §3, §4, §5

[3] = tested on: dopamine receptor within the central nervous system; assay: Block of apomorphine-induced cage climbing; format: in vivo, CF-1 mice; details: i.p., 25 minutes before apomorphine HCl 2.5 mg/kg i.p.; i.a. = inactive at top dose of 50 mg/kg
Description: Administration to mice stimulates dopaminergic receptors which results in enhanced locomotor activity, including climbing up the sides of wire cages. […] As a specific measure of their antagonistic effect, both the prior art compounds and the compounds of the invention are tested in their ability to block agonist-induced locomotor activity. […] During this time, mice that climb the walls more than half-way to the top (6") are removed from the cage. […] Co., New York, N.Y., p.

D2 receptor [4] = molecular target: T1, D2 receptor (Rattus norvegicus, UniProt P61169); assay: biochemical; format: binding; details: for binding to dopamine receptors (in words): at concentrations as high as 1,000 nM (m-tolyl) and 10,000 nM (p-methoxyphenyl), respectively
T1 sequence (P61169 whole entry): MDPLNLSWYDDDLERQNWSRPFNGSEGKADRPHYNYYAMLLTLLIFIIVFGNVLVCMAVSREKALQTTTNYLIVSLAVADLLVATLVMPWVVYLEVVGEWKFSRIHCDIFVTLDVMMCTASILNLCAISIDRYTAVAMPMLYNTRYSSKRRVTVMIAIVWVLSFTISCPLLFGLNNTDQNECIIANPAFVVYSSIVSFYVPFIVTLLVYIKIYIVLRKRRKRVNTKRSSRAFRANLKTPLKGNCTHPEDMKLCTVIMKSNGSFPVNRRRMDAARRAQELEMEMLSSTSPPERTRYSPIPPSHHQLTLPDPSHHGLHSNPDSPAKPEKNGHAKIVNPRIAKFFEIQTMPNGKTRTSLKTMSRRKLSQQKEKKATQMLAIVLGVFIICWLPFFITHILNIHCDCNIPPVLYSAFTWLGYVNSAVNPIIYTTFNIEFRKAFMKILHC
Description: The compounds of the invention are tested in a series of assays known by those skilled in the art as predictive for activity as dopamine partial agonists. […] Drugs. […] Except as otherwise stated, all other chemicals are widely available from commercial sources.
1. Dopamine Receptor Binding
Since a dopamine partial agonist must bind to the dopamine receptor, binding studies are used to determine the affinity of a compound for the receptor. […] The dopamine receptor affinity of the prior art compounds is compared to two compounds of the present invention following the procedure described in R. H. Roth. Comm. […] Compounds are tested at least four concentrations in triplicate. Non-specific binding is determined using 1 uM thioridazine.

catalepsy [5] = details: rat, in vivo
[6] = tested on: amphetamine-induced stereotyped behavior; assay: Antagonism of amphetamine-induced stereotyped behavior; format: in vivo, Sprague-Dawley rats; details: for minimal effective dose: Rattus norvegicus, ip, i.p. 30 minutes before d-amphetamine (10 mg/kg s.c.), read-out: Antagonism amphetamine stereotypy: threshold dose for effect
Description: Amphetamine releases excessive dopamine and induces a state in animals that serves as a model of positive-symptom schizophrenia. Amphetamine stimulates excessive locomotor activity in the rat, including uncontrolled stereotyped movements, characterized by licking and chewing. This model is indicative of the human response as amphetamine abuse is characterized by schizophrenic-like behavior in humans. Thus compounds may be tested in their ability to antagonize amphetamine.

catalepsy [7] = assay: Catalepsy
D2 receptor [8] = molecular target: T1, D2 receptor; details: rat striata; Kohler; cited from earlier work
D2 receptor [9] = details: PET scanning in humans; Farde; cited from earlier work
[10] = 3H-raclopride, whole rat brain, non-specific binding with 1 uM thioridazine, i.a. = inactive at specified concentration, read-out: Ki (dose for 50% occupation of the receptors)

CN1CCc2cccc3c2[C@H]1Cc1ccc(O)c(O)c1-3 [Apomorphine]
Emax ([1]; Table 3): 100%
ED50 ([1]; i.a. = inactive): 0.01 mg/kg
Antagonist Max.: maximal reversal of amphetamine ([2]; i.v.): 0%
Antagonist ED50: dose to reverse amphetamine by 50% ([2]; i.v., i.a. = inactive): i.a.

CCN(CC)C(=O)N[C@H]1C[C@@H]2c3cccc4[nH]cc(c34)C[C@H]2N(C)C1 [TDHL, 1-1-diethyl-3-(6-methyl-8α-ergoline)-urea dihydrogenphosphate]
ED50 [1]: 0.021 mg/kg
Emax [1]: 53%
ED50 [2]: 0.136 mg/kg
Antagonist Max.: maximal reversal of amphetamine ([2]; i.v.): 60%
ED50: dose for elimination of climbing behavior in 2 of 4 animals [3]: 35 mg/kg
pKi (D2 receptor [4]; [10]): 9.02

Cc1[nH]c2cccc3c2c1C[C@@H]1[C@@H]3C[C@H](NC(=O)C(C)(C)C)CN1C [SDZ 208-911, N-[(8-α)-2,6-dimethyl-ergoline-8-yl]-2,2-dimethylpropanamide]
ED50 [1]: 0.038 mg/kg
Emax [1]: 38%
ED50 [2]: 0.132 mg/kg
Antagonist Max.: maximal reversal of amphetamine ([2]; i.v.): 92%

O=C(CCCN1CCC(O)(c2ccc(Cl)cc2)CC1)c1ccc(F)cc1 [Haloperidol]
Catalepsy: threshold dose for effect (catalepsy [5]): 1.0 mg/kg
Emax [1]: 0%
Agonist ED50: dose to depress firing by 50% ([1]; i.v., i.a. = inactive): i.a.
ED50 ([2]; i.a. = inactive): 0.008 mg/kg
Antagonist Max.: maximal reversal of amphetamine ([2]; i.v.): 163%
minimal effective dose [6]: 1 mg/kg

CN1C[C@@H](NC(=O)C(C)(C)C)C[C@@H]2c3cccc4[nH]c(Cl)c(c34)C[C@H]21 [SDZ 208-912, N-[(8-α)-2-chloro-6-methyl-ergoline-8-yl]-2,2-dimethylpropanamide]
ED50 [1]: 0.021 mg/kg
Emax [1]: 16%
ED50 [2]: 0.115 mg/kg
Antagonist Max.: maximal reversal of amphetamine ([2]; i.v.): 93%
pKi (D2 receptor [4]): 7.80

Cl.O=C1N(CCCN2CCN(c3ccccc3)CC2)CCN1c1ccccc1 [1-phenyl-3-[3-(4-phenyl-1-piperazinyl)propyl]-2-imidazolidinone hydrochloride]
ED50: dose for elimination of climbing behavior in 2 of 4 animals [3]: i.a.
pKi (D2 receptor [4]; read-out: Ki (dose for 50% occupation of the receptors)): 6.49

Cc1cccc(N2CCN(CCCN3CCN(c4cccc(Cl)c4)C3=O)CC2)c1 [1-(m-chlorophenyl)-3-[3-[4-(m-tolyl)-1-piperazinyl]propyl]-2-imidazolidinone]
ED50: dose for elimination of climbing behavior in 2 of 4 animals [3]: i.a.
pKi (D2 receptor [4]; [10]): < 6.00
binding to dopamine receptors (in words) (D2 receptor [4]): do not bind at all

CCCN1CCCC(c2cccc(O)c2)C1 (single isomer, unassigned; (-)) [(-)-3-PPP, (-)-3-(3-hydroxyphenyl)-N-n-propylpiperidine]
Emax ([1]; Table 3): 70%
ED50 ([1]; i.a. = inactive): 0.086 mg/kg

7-hydroxy-1,2,3,4,4a,5,6,10-octahydrobenzo(f)quinoline [HW-165]
Agonist Max.: maximal depression of firing ([1]; i.v., Table 3): 85%
Agonist ED50: dose to depress firing by 50% ([1]; i.v., i.a. = inactive): 180 µg/kg

COc1ccccc1N1CCN(CCCCN2CCN(c3ccccc3)C2=O)CC1 [Example 1, 1-[4-[4-(2-methoxyphenyl)-1-piperazinyl]butyl]-3-phenyl-2-imidazolidinone]
maximal depression on DA cell firing (% of control) [1]: 32%
Emax ([1]; Table 3): 36%
ED50 ([1]; i.a. = inactive): 0.016 mg/kg
depression of SNPC cells (in words) ([1]; i.v.): behaved as dopamine partial agonists
ED50 ([2]; i.a. = inactive): 0.04 mg/kg
Antagonist Max.: maximal reversal of amphetamine ([2]; i.v.): 70%
antagonism of amphetamine-induced excessive dopaminergic activity (in words) ([2]; i.v.): only partially antagonized amphetamine
ED50: dose for elimination of climbing behavior in 2 of 4 animals [3]: 12 mg/kg
minimal effective dose [6]: 0.3 mg/kg
antagonism of amphetamine stereotypy, potency relative to haloperidol (in words) ([6]; rat, in vivo): antagonizes amphetamine stereotypy with a potency greater than that of halperidol
pKi (D2 receptor [4]; [10]): 8.59
Catalepsy: threshold dose for effect (catalepsy [7]; defined as 200% increase in time a rat will spend leaning on a box without aid): 10 mg/kg
catalepsy relative to dose blocking amphetamine-induced stereotypy (in words) (catalepsy [7]; rat, in vivo): produces catalepsy only at doses much higher that required to block amphetamine-induced stereotypy

CCCN(CCC)C1Cc2cccc3cc(O)cc(c23)C1 (single isomer, unassigned; (-)) [(-)-z-(dipropylamino)-2,3-dihydro-1-H-phenalen-5-ol]
pKi (D2 receptor [4]): 9.33

CCN1CCC[C@H]1CNC(=O)c1c(O)c(Cl)cc(Cl)c1OC [raclopride]
B max (D2 receptor [8]): 23.5 pmoles/g tissue
Bmax (D2 receptor [4]; 3H-raclopride, whole rat brain): 1.6 pmoles/g tissue
binding to the D2 receptor (in words) (D2 receptor [9]): binds to the D2 receptor

COc1ccc(N2CCN(CCCN3CCN(c4cccc(Cl)c4)C3=O)CC2)cc1 [1-(m-chlorophenyl)-3-[3-[4-(p-methoxy-phenyl)-1-piperazinyl]propyl]-2-imidazolidinone]
ED50: dose for elimination of climbing behavior in 2 of 4 animals [3]: i.a.
pKi (D2 receptor [4]; [10]): < 5.00
binding to dopamine receptors (in words) (D2 receptor [4]): do not bind at all

COc1ccccc1N1CCN(CCCCN2CCN(c3cccc(Cl)c3)C2=O)CC1 [Example 2, 1-(3-chlorophenyl)-3-[4-[4-(2-methoxyphenyl)-1-piperazinyl]butyl]-2-imidazolidinone]
maximal depression on DA cell firing (% of control) [1]: 54%
further depression of SNPC cells on increasing the dose (in words) ([1]; 3 mg/kg vs 1 mg/kg i.v.): does not further increase the depression in SNPC cells
Emax ([1]; Table 3): 54%
ED50 ([1]; i.a. = inactive): 0.108 mg/kg
depression of SNPC cells (in words) ([1]; i.v.): behaved as dopamine partial agonists
ED50 ([2]; i.a. = inactive): 0.343 mg/kg
Antagonist Max.: maximal reversal of amphetamine ([2]; i.v.): 73%
ED50: dose for elimination of climbing behavior in 2 of 4 animals [3]: 42 mg/kg
pKi (D2 receptor [4]; [10]): 8.43
